Values of other authors in US20200093949A1, “COMBINED ODOR ABSORPTION AND INSECT REPELLENT COMPOSITIONS, TREATMENTS, AND METHODS OF USE” (priority 2014, published 2020).

System: yellow fever mosquito
Details: compared with DEET

CCC(C)OC(=O)N1CCCCC1CCO (stereo not shown) [Picaridin, 2-(2-hydroxyethyl)-1-piperidine carboxylic acid 1-methylpropyl ester]
time of protection of guinea pigs from bites, post application: longer times
